System: not listed separately
Assay: Oral bioavailability in rat relative to urinary excretion
Assay type: ADME, organism-based
Settings: urine

Row | bioavailability [%] | Compound
1 | 20 | O=C(c1cc(Cl)c(OS(=O)(=O)O)c(Cl)c1)N1CS(=O)(=O)c2ccccc21
2 | 44.3 | O=C(O)[C@H]1O[C@@H](Oc2c(Cl)cc(C(=O)N3CS(=O)(=O)c4ccccc43)cc2Cl)[C@H](O)[C@@H](O)[C@@H]1O

Biological target: Xanthine dehydrogenase/oxidase (Homo sapiens, UniProt P47989)
Assay: Inhibition of XO (unknown origin)
Settings: not given

Chain of Xanthine dehydrogenase/oxidase (P47989 whole entry): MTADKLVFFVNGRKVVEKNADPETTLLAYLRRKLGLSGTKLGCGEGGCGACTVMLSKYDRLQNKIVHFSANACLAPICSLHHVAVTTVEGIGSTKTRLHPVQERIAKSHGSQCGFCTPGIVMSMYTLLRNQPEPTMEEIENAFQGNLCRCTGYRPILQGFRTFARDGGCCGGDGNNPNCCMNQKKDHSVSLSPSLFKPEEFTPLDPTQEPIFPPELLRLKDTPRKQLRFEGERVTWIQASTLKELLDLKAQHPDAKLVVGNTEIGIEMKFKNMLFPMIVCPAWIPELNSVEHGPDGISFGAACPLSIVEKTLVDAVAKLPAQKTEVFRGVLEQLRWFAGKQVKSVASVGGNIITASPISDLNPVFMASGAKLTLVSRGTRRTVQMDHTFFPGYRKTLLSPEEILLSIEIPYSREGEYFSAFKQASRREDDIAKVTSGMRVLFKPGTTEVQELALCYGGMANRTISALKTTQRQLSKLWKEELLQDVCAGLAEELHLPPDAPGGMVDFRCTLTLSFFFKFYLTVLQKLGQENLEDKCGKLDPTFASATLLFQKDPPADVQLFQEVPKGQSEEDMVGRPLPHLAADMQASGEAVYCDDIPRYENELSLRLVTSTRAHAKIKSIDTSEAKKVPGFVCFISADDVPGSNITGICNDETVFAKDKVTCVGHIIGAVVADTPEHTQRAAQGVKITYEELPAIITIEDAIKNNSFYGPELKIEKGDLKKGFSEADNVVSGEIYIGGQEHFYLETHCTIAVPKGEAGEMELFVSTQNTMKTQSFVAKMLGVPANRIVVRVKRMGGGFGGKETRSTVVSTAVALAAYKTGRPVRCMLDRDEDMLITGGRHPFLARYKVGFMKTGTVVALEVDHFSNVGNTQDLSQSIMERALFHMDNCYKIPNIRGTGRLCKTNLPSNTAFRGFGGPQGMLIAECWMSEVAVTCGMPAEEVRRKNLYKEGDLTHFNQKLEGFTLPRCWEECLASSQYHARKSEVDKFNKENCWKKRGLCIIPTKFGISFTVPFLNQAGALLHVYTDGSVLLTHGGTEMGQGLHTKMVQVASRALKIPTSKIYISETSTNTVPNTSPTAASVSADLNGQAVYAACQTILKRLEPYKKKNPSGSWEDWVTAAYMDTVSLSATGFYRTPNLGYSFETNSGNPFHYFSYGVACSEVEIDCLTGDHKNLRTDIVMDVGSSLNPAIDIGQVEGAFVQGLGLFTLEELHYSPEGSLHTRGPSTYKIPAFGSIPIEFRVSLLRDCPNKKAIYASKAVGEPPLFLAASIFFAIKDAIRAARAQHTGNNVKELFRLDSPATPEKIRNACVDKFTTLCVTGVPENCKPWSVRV

Row | IC50 [µM] | Compound
3 | 21.7 | N#Cc1ccc(COc2cc(O)cc3oc4cc(O)c(O)cc4c(=O)c23)cc1
4 | 5.3 | CC(=O)N1N=C(c2ccco2)CC1c1ccncc1 (centres undefined)
5 | 6 | Cc1nc(-c2ccc(OCC(C)(C)C)c(C#N)c2)n(O)c1C(=O)O
6 | 25 | Cc1nc(-c2ccc(OCC(C)C)c(C#N)c2)sc1C(=O)O [FEBUXOSTAT]
7 | 0.62 | O=c1cc(-c2ccc(F)cc2)oc2c1ccc1ccccc12

Row | Compound | IC50 [µM]
8 | N#CC1=C(N)Oc2c(c(=O)oc3ccccc23)C1c1cccs1 (centres undefined) | 0.59

Biological target: T1, Broad substrate specificity ATP-binding cassette transporter ABCG2 (Homo sapiens, UniProt Q9UNQ0)
T1 sequence (Q9UNQ0 whole entry): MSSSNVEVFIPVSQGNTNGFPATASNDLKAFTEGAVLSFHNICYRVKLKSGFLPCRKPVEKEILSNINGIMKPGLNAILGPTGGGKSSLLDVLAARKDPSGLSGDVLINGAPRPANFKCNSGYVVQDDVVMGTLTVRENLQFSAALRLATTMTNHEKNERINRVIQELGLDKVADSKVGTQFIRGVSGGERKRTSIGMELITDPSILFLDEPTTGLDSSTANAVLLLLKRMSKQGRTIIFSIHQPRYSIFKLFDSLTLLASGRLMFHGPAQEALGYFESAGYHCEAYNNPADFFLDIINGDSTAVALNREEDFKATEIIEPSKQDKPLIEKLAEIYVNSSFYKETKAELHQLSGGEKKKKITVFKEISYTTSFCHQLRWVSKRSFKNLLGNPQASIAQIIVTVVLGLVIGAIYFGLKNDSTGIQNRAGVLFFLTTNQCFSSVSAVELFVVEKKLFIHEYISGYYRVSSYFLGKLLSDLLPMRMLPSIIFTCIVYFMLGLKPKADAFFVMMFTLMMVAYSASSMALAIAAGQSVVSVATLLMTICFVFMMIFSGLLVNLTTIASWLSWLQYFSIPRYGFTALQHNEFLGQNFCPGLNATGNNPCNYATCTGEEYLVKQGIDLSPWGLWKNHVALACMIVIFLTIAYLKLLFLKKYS
Assay: Inhibition of ABCG2 (unknown origin)
Settings: not given

Row | IC50 [µM] | Compound
9 | 0.0372 | O=C(c1cc(Cl)c(O)c(Cl)c1)N1CS(=O)(=O)c2ccccc21 [DOTINURAD]
